Data: EP1056778B1, “G PROTEIN-COUPLED RECEPTOR ANTAGONISTS” (priority 1998, dated 1999)
Read-outs that look alike come from different tables or passages of the source. One block for each compound: values may come before it. Where a SMILES comes first, the peptide text is derived from it. Where no end group is shown, it is not given here. K(Rhod) = not defined here

What was measured:
HIV-1RF = test: Anti-HIV-1 cytoprotection assay, CEM-SS cells infected with HIV-1 strain RF; type: cell-based
CXCR4 = CXCR4 (Homo sapiens, UniProt P61073); test: Inhibition of SDF-1α-induced intracellular calcium release (Fura-2/AM, HeLa and U87 cells expressing CXCR4); type: cell-based; conditions: for Concentration, required for complete inhibition of [Ca ^2+ i] release: Table 1; for Concentration, required for complete inhibition of [Ca^2+ I] release: Table 3, peptides from second transmembrane domain of CXCR4
Method: The effect of the peptides on CXCR4-mediated calcium fluxes in HeLa cells that naturally express the CXCR4 receptor and U87 cells stably expressing the CXCR4 receptor was tested as follows. Cells grown on Nunc cover glass chamber slides were incubated with 1 micromolar Fura-2/AM for 20 min in a CO2-incubator, rinsed with PBS and mounted on the stage of a Zeiss Axiovert inverted microscope. [Ca^2+]i measurements were performed using an Attofluor digital imaging system (Atto Instruments, Rockville, MD). Fluorescence of Fura was excited at alternating wavelength of 340 and 380 nm. Fluorescence was monitored by an intensified CCD camera using a 505 cut-off filter. Calibrations of [Ca^2+]i signals were performed using Ca^2+ standards containing 1 micromolar Fura. CXCR4 antagonists were tested on HeLa cells and U87 cells. Stromal cell-derived factor-1α (SDF-1α) was used as a specific CXCR4 agonist.
CCR5 antagonists, which were used in selectivity studies as described below, were tested on HEK (human kidney […]) cells stably expressing the CCR5 receptor and RANTES was used as an agonist. The antagonist activity of the peptides was evaluated by measuring the inhibition of agonist-evoked intracellular Ca^2+i release. These measurements were carried out in Fura-2/AM-treated cells, utilizing an Attofluor digital imaging system as described above. The agonist was SDF-1α.
Further optimization and structure-activity studies allowed to obtain antagonists derived from all but the third and fifth transmembrane domains (Table 2). Table 1. Activity of synthetic peptides corresponding to predicted transmembrane domains of CXCR4 in inhibition of SDF-1α-induced intracellular calcium release.
Table 2. Biological activity of CXCR4 antagonists derived from different transmembrane domains. Anti signaling activity was determined in inhibition of SDF-1α-induced intracellular calcium release. Anti-HIV-1 activity was assessed in cytoprotection assay utilizing CEM-SS cells infected with HIV-1RF.

CCKAR = target: T1, CCKAR (Rattus norvegicus, UniProt P30551); test: Inhibition of binding of fluorescent agonist RG-CCK-8, quantitative confocal laser scanning microscopy
T1 construct: expressed in transfected cells; host or cells: CHO cells
T1 sequence (P30551 1-444): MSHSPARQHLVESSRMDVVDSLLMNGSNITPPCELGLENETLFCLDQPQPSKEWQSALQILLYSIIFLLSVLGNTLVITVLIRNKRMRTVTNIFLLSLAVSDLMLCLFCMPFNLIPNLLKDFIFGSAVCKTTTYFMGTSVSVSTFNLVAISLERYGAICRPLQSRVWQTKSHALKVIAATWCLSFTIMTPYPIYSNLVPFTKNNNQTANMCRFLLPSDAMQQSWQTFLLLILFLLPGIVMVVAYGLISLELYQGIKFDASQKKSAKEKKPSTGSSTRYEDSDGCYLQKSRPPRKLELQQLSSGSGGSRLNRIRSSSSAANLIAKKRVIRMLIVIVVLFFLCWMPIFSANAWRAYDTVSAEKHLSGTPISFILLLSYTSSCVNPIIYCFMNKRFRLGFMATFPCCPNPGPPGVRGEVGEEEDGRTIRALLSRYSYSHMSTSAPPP

[1] = cytoprotection assay, CEM-SS cells infected with HIV-1RF, read-out: EC50 in anti-HIV-1 assay
[2] = SDF-1α-induced intracellular calcium release

CXCR4, sequence (P61073 whole entry, the tested form may be a part): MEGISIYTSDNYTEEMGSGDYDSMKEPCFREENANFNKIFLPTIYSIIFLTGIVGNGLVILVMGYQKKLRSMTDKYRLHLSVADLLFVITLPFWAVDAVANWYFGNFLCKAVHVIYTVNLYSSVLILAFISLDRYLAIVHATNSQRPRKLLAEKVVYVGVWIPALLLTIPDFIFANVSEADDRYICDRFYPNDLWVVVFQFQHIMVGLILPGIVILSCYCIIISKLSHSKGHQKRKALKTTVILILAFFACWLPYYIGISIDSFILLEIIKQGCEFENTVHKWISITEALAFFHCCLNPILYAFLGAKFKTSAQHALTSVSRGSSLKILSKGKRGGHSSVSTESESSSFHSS

Compound: CC[C@H](C)[C@H](NC(=O)CNC(=O)[C@@H](NC(=O)[C@H](Cc1ccc(O)cc1)NC(=O)[C@H](Cc1ccc(O)cc1)NC(=O)[C@@H]1CCCN1C(=O)[C@H](CC(C)C)NC(=O)[C@H](Cc1c[nH]c2ccccc12)NC(=O)[C@H](CS)NC(=O)[C@H](C)NC(=O)[C@H](Cc1ccccc1)NC(=O)[C@H](Cc1ccccc1)NC(=O)[C@H](C)NC(=O)[C@H](CC(C)C)NC(=O)[C@@H](NC(=O)[C@H](CC(C)C)NC(=O)[C@@H](NC(=O)[C@@H](N)C(C)C)[C@@H](C)CC)[C@@H](C)CC)[C@@H](C)CC)C(=O)N[C@@H](CO)C(=O)N[C@H](C(=O)N[C@@H](CC(=O)O)C(=O)O)[C@@H](C)CC [Peptide F-6-1] (H-VILILAFFACWLPYYIGISID-OH)
EC50 (HIV-1RF; [1]): > 50000 nM

Concentration, required for complete inhibition of [Ca ^2+ i] release (CXCR4; [2]): >50 µM
Compound: HIMVGLILPGIVILSCYCIII-NH2 (cysteine pairing not given here) [Peptide F-5-1]

Compound: CC[C@H](C)[C@H](NC(=O)[C@@H](NC(=O)[C@H](Cc1ccccc1)NC(=O)[C@H](CC(C)C)NC(=O)[C@@H](N)CC(C)C)C(C)C)C(=O)N[C@H](C(=O)N[C@@H](CC(C)C)C(=O)N1CCC[C@H]1C(=O)N[C@@H](Cc1ccccc1)C(=O)N[C@@H](Cc1c[nH]c2ccccc12)C(=O)N[C@@H](C)C(=O)N[C@H](C(=O)N[C@@H](CC(=O)O)C(=O)N[C@@H](C)C(=O)N[C@H](C(=O)N[C@@H](C)C(=O)N[C@@H](CC(N)=O)C(=O)N[C@@H](Cc1c[nH]c2ccccc12)C(=O)N[C@@H](Cc1ccc(O)cc1)C(=O)N[C@@H](Cc1ccccc1)C(=O)NCC(=O)N[C@@H](CC(N)=O)C(=O)N[C@@H](CC(=O)O)C(=O)N[C@@H](CC(=O)O)C(=O)O)C(C)C)C(C)C)[C@@H](C)O [Peptide F-2-2] (H-LLFVITLPFWAVDAVANWYFGNDD-OH)
EC50 (HIV-1RF; [1]): 2270 nM

Compound: CC[C@H](C)[C@H](NC(=O)[C@H](Cc1ccccc1)NC(=O)[C@H](CC(=O)O)NC(=O)[C@@H]1CCCN1C(=O)[C@@H](NC(=O)[C@@H](NC(=O)[C@H](CC(C)C)NC(=O)[C@H](CC(C)C)NC(=O)[C@H](CC(C)C)NC(=O)[C@H](C)NC(=O)[C@@H]1CCCN1C(=O)[C@@H](NC(=O)[C@H](Cc1c[nH]c2ccccc12)NC(=O)[C@@H](NC(=O)CNC(=O)[C@@H](NC(=O)[C@H](Cc1ccc(O)cc1)NC(=O)[C@@H](N)C(C)C)C(C)C)C(C)C)[C@@H](C)CC)[C@@H](C)O)[C@@H](C)CC)C(=O)N[C@@H](Cc1ccccc1)C(=O)N[C@@H](C)C(=O)N[C@@H](CC(N)=O)C(=O)N[C@@H](CC(=O)O)C(=O)N[C@@H](CC(=O)O)C(=O)O [Peptide F-4-2] (H-VYVGVWIPALLLTIPDFIFANDD-OH)
EC50 (HIV-1RF; [1]): 300 nM

Concentration, required for complete inhibition of [Ca ^2+ i] release (CXCR4; [2]): > 100 µM
Compound: ALAFFHCCLNPILYAFLGAK-NH2 (cysteine pairing not given here) [Peptide F-7-1]

Concentration, required for complete inhibition of [Ca^2+ I] release (CXCR4): 8 µM
Compound: ACLLFVITLPFWAVDAVANWYFG NDDK(Rhod) D-OH (ACLLFVITLPFWAVDAVANWYFGNDD-{K(Rhod)-Asp-OH}; reading uncertain; also: printed as ACLLFVITLPFWAVDAVANWYFG NDDK(Rhod) D-OH) [Rhod - F-2]

Concentration, required for complete inhibition of [Ca^2+ I] release (CXCR4): 10 µM
Compound: CC[C@H](C)[C@H](NC(=O)[C@@H](NC(=O)[C@H](Cc1ccccc1)NC(=O)[C@H](CC(C)C)NC(=O)[C@H](CC(C)C)NC(C)=O)C(C)C)C(=O)N[C@H](C(=O)N[C@@H](CC(C)C)C(=O)N1CCC[C@H]1C(=O)N[C@@H](Cc1ccccc1)C(=O)N[C@@H](Cc1c[nH]c2ccccc12)C(=O)N[C@@H](C)C(=O)N[C@H](C(=O)N[C@@H](CC(=O)O)C(=O)N[C@@H](C)C(=O)N[C@H](C(=O)N[C@@H](C)C(=O)N[C@@H](CC(N)=O)C(=O)N[C@@H](CC(=O)O)C(=O)N[C@@H](CC(=O)O)C(=O)O)C(C)C)C(C)C)[C@@H](C)O [AcF-2-5]

IC50 (CCKAR; fluorescent agonist rhodamine green CCK-8, read-out: IC50 in inhibiton of RG-CCK-8 binding): 20 µM
Compound: CC[C@H](C)[C@H](NC(=O)[C@H](CCC(N)=O)NC(=O)[C@H](CC(C)C)NC(=O)[C@H](C)NC(=O)[C@H](CO)NC(=O)[C@H](CCC(N)=O)NC(=O)[C@H](Cc1c[nH]c2ccccc12)NC(=O)[C@H](CCC(=O)O)NC(=O)[C@H](CC(=O)O)NC(=O)[C@@H](N)CC(=O)O)C(=O)N[C@@H](CC(C)C)C(=O)N[C@@H](CC(C)C)C(=O)N[C@@H](Cc1ccc(O)cc1)C(=O)N[C@@H](CO)C(=O)N[C@H](C(=O)N[C@H](C(=O)N[C@@H](Cc1ccccc1)C(=O)N[C@@H](CC(C)C)C(=O)N[C@@H](CC(C)C)C(=O)N[C@@H](CO)C(=O)N[C@H](C(=O)NCC(=O)N[C@@H](CC(N)=O)C(=O)N[C@H](C(=O)N[C@@H](CC(C)C)C(=O)N[C@H](C(=O)N[C@H](C(=O)N[C@H](C(=O)N[C@H](C(=O)O)C(C)C)[C@@H](C)O)[C@@H](C)CC)C(C)C)[C@@H](C)O)C(C)C)[C@@H](C)CC)[C@@H](C)CC [CCKAR-1-6] (H-DDEWQSALQILLYSIIFLLSVGNTLVITV-OH)

Compound: CC[C@H](C)[C@H](NC(=O)CNC(=O)[C@@H]1CCCN1C(=O)[C@H](CC(C)C)NC(=O)[C@H](CC(C)C)NC(=O)[C@H](Cc1ccccc1)NC(=O)[C@H](CC(C)C)NC(=O)[C@@H](NC(=O)[C@H](CC(C)C)NC(=O)[C@H](CC(C)C)NC(=O)[C@H](CC(C)C)NC(=O)[C@H](Cc1ccccc1)NC(=O)[C@@H](NC(=O)[C@H](CCC(N)=O)NC(=O)[C@H](CC(=O)O)NC(=O)[C@@H](N)CC(=O)O)[C@@H](C)O)[C@@H](C)CC)C(=O)N[C@H](C(=O)N[C@@H](CCSC)C(=O)N[C@H](C(=O)N[C@H](C(=O)N[C@@H](C)C(=O)N[C@@H](Cc1ccc(O)cc1)C(=O)NCC(=O)N[C@@H](CC(C)C)C(=O)O)C(C)C)C(C)C)C(C)C [CCKAR-5-3] (H-DDQTFLLLILFLLPGIVMVVAYGL-OH)
IC50 (CCKAR): > 50 µM

Compound: CC[C@H](C)[C@H](N)C(=O)N[C@H](C(=O)N[C@H](C(=O)N[C@@H](CC(C)C)C(=O)N[C@@H](Cc1ccccc1)C(=O)N[C@@H](Cc1ccccc1)C(=O)N[C@@H](CC(C)C)C(=O)N[C@@H](CS)C(=O)N[C@@H](Cc1c[nH]c2ccccc12)C(=O)N[C@@H](CCSC)C(=O)N1CCC[C@H]1C(=O)N[C@H](C(=O)N[C@@H](Cc1ccccc1)C(=O)N[C@@H](CO)C(=O)N[C@@H](C)C(=O)N[C@@H](CC(N)=O)C(=O)N[C@@H](C)C(=O)N[C@@H](Cc1c[nH]c2ccccc12)C(=O)N[C@@H](CCCNC(=N)N)C(=O)N[C@@H](C)C(=O)N[C@@H](Cc1ccc(O)cc1)C(=O)N[C@@H](CC(=O)O)C(=O)N[C@H](C(=O)N[C@H](C(=O)N[C@@H](CC(=O)O)C(=O)N[C@@H](CC(=O)O)C(=O)O)C(C)C)[C@@H](C)O)[C@@H](C)CC)C(C)C)C(C)C [CCKAR-6-4] (H-IVVLFFLCWMPIFSANAWRAYDTVDD-OH)
IC50 (CCKAR): > 50 µM

Compound: CC[C@H](C)[C@H](NC(=O)[C@@H]1CCCN1C(=O)[C@H](CC(N)=O)NC(=O)[C@H](CC(C)C)NC(=O)[C@H](CS)NC(=O)[C@H](CS)NC(=O)[C@H](Cc1c[nH]cn1)NC(=O)[C@H](Cc1ccccc1)NC(=O)[C@H](Cc1ccccc1)NC(=O)[C@H](C)NC(=O)[C@H](CC(C)C)NC(=O)[C@H](C)NC(=O)[C@H](CCC(=O)O)NC(=O)[C@H](CC(=O)O)NC(=O)[C@@H](N)CC(=O)O)C(=O)N[C@@H](CC(C)C)C(=O)N[C@@H](Cc1ccc(O)cc1)C(=O)N[C@@H](C)C(=O)N[C@@H](Cc1ccccc1)C(=O)N[C@@H](CC(C)C)C(N)=O [Peptide F-7-3] (H-DDEALAFFHCCLNPILYAFL-NH2; N-terminus assumed)
EC50 (HIV-1RF; 1RF): 3270 nM | Concentration, required for inhibition of signal transduction (CXCR4; Table 2, SDF-1α-induced intracellular calcium release): 25 µM
